Test [1] has as its system primary intestinal epithelial cells. Nature of the test: IL-17A added to primary cultured intestinal epithelial cells (microarray, qPCR). The format is cell-based, mouse. The note with it: 20 ng/ml IL-17A. An excerpt: Despite the important role of IL-17 in autoimmunity and inflammatory bowel disease (IBD) its function in the mucosa in disease is still unclear. In IBD, IL-17 is produced in part by mucosal pro-inflammatory Th17 cells. […] To investigate this possibility, we treated primary cultured intestinal epithelial cells with IL-17 and conducted transcriptomic analysis. […] This process was inhibited by PAI-1. […] This study identifies a new pathway in UC where dysregulated PAI-1 leads to exacerbated inflammation and disease activity by blocking an IL-17-tPA-TGF-β axis.
From colon epithelial lines n=4; Stem cells; Stem cells (2 days); DM; Colonocytes; With and without 20 ng/ml IL-17A.
We sought a marker of intestinal inflammation in IBD that is downstream of multiple inflammatory pathways. We first performed RNA microarray analysis on primary mouse intestinal epithelial cells treated these cells with IL-17 (a known important inflammatory cytokine in IBD). We cross-referenced a list of 23 molecules with enhanced mRNA production in these cells grown multiple states to lists of molecules with enhanced expression in IBD colon biopsies. We identified that the Plat/Serpine1 pathway was enriched. […]
(Real-time PCR tracks product formation cycle by cycle.)

The test system of the next test is colon spheroids. Nature of the test: TGFβ on colon spheroids, serpine1/PAI-1 expression. The conditions noted are these: colon spheroids (FIG. 25). Type of test: cell-based. An excerpt: FIG. 25. TGFβ drives serpine1/PAI-1 expression in the colon spheroids (negative feedback loop)

“IL-17: inflammatory cytokine added to primary intestinal epithelial cells”: in test [1], the “production of tissue plasminogen activator (tPA) by epithelial cells” value was “induced”.

Consider TGFβ, for which, in the test with colon spheroids, the serpine1/PAI-1 expression result is on record as “drives”.

The values above are taken from patent US20230313305A1, “METHODS AND USES OF INFLAMMATORY BOWEL DISEASE BIOMARKERS” (Washington University, priority 2017, published 2023).
